Consider 17 compounds from article PMC6222323, “Exploiting the Chalcone Scaffold to Develop Multifunctional Agents for Alzheimer’s Disease” (Molecules : A Journal of Synthetic Chemistry and Natural …, 2018).

Structures are written as SMILES.

In data set [1] the target is human recombinant AChE (hAChE) (Homo sapiens, UniProt P22303). Kind of data set: biochemical. Particulars: for SI: selectivity index for AChE: calculated as IC50 hBuChE/hAChE ratio; for IC50: read-out: IC50 (µM) ± SEM hAChE. Type of data set: biochemical.
The target of data set [2] is BuChE from human serum (hBuChE) (Homo sapiens, UniProt P06276). Description: biochemical. Type of data set: biochemical. To be noted: for IC50: read-out: IC50 (µM) ± SEM hBuChE.
Data set [3] deals with SH-SY5Y cells. Type of data set: cell-based. To be noted: 24 h treatment, 2.5–80 µM tested, MTT assay, SH-SY5Y cells (data not shown). On the technique in general: Formazan colour is commonly taken as a measure of viable cells.
Data set [4] deals with SH-SY5Y cells. Kind of data set: Antioxidant activity, ROS formation induced by t-BuOOH (H2DCF-DA probe). The data set is classed as cell-based. To be noted: Homo sapiens, 1.25 µM compound for 24 h, then t-BuOOH 100 µM for 30 min, read-out: inhibition percentage in ROS formation induced by t-BuOOH.
The subject of data set [5] is SH-SY5Y cells. Description: Glutathione (GSH) levels (MCB probe). To be noted: 1.25 µM compound for 24 h, vs. control. The data set is classed as cell-based, human.
Data set [6] concerns SH-SY5Y cells. Description: Neuroprotective activity toward Aβ1–42 oligomers, MTT formazan exocytosis assay. Type of data set: cell-based, human. Particulars: 1.25 µM compound with OAβ1–42 10 µM for 4 h.
The mark [7] stands for this setting: human recombinant AChE, 20 min preincubation at 37 °C, pH 8.0, n.a. = not active, inhibition lower than 15% at the highest tested concentration.
[8] abbreviates: BuChE from human serum, 20 min preincubation at 37 °C, pH 8.0, n.a. = not active, inhibition lower than 15% at the highest tested concentration.

Chain of BuChE from human serum (hBuChE) (P06276 29-602): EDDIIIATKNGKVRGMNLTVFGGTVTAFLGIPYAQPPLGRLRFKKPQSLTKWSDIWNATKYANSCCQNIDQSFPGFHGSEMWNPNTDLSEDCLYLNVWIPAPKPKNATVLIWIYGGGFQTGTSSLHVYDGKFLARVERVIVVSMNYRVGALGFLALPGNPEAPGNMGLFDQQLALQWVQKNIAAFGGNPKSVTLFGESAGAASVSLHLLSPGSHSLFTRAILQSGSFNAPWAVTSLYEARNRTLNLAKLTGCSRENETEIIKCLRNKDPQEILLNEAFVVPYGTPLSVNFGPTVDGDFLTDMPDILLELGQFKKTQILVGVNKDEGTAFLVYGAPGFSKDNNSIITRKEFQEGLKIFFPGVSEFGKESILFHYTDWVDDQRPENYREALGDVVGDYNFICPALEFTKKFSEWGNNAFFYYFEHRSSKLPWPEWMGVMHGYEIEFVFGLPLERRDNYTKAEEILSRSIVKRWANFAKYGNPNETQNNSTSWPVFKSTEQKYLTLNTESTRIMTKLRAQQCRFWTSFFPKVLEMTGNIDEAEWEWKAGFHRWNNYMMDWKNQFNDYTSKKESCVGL
Chain of human recombinant AChE (hAChE) (P22303 32-614): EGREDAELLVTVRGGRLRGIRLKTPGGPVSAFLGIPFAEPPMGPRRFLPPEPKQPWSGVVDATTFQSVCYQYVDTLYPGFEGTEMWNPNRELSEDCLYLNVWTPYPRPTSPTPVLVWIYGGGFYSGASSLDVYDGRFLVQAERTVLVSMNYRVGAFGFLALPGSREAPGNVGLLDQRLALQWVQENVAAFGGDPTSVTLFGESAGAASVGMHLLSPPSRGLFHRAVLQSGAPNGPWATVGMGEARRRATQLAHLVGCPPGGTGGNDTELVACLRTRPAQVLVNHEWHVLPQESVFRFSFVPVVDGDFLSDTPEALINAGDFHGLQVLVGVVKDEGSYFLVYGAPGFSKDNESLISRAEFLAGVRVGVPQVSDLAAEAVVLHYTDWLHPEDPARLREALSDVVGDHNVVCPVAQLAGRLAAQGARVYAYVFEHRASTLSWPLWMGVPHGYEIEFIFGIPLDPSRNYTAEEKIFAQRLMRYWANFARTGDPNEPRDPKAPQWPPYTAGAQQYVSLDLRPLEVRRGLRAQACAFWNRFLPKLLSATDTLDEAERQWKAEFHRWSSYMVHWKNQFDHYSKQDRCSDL

The term IC50 denotes the concentration needed to halve the response being measured. Turning to `CN(CCCCCCCOc1ccc(C=CC(=O)c2ccc(OCCN3CCc4ccccc4C3)cc2)cc1)Cc1ccccc1` [compound 8, 3-(4-((7-(Benzyl(methyl)amino)heptyl)oxy)phenyl)-1-(4-(2-(3,4-dihydroisoquinolin-2(1H)-yl)ethoxy)phenyl)prop-2-en-1-one], in data set [1], the “SI: selectivity index for AChE” value is recorded as 0.23. In addition, the IC50 was determined as 16.5 ± 2.6 µM in data set [1] (setting [7]) and 3.87 ± 0.3 µM in data set [2] (setting [8]).

For the compound `CN(CCCCCCCOc1ccc(C=CC(=O)c2ccc(OCCN3CCOCC3)cc2)cc1)Cc1ccccc1` [compound 6, 3-(4-((7-(Benzyl(methyl)amino)heptyl)oxy)phenyl)-1-(4-(2-morpholinoethoxy)phenyl)prop-2-en-1-one], the “SI: selectivity index for AChE” value in data set [1] is listed as 0.021. Besides, the figures for the 50% inhibitory concentration (IC50) in data set [1] (setting [7]) and in data set [2] (setting [8]) were 511 ± 37 µM and 11 ± 0.5 µM, respectively. Also, the “fold worse hAChE inhibition than compound 7” value in data set [1] (morpholino vs piperidine derivative) is given as “about 500 fold”.

With `CN(CCCCCCCOc1ccc(C=CC(=O)c2ccc(OCCN3CCCCC3)cc2)cc1)Cc1ccccc1` [compound 7, 3-(4-((7-(Benzyl(methyl)amino)heptyl)oxy)phenyl)-1-(4-(2-(piperidin-1-yl)ethoxy)phenyl)prop-2-en-1-one], the “SI: selectivity index for AChE” value in data set [1] is on record as 15.8. Besides, the concentration for half-maximal inhibition (IC50) in data set [1] (setting [7]) stood at 1.25 ± 0.06 µM; in data set [2] (setting [8]), 19.7 ± 0.6 µM.

With `CCN(CC)CCOc1ccc(C(=O)CCc2ccc(OCCCCCCCN(C)Cc3ccccc3)cc2)cc1` [compound 16, 3-(4-((7-(Benzyl(methyl)amino)heptyl)oxy)phenyl)-1-(4-(2-(diethylamino)ethoxy)phenyl)-propan-1-one], the “SI: selectivity index for AChE” value in data set [1] is on record as 3.25. In addition, the results for the concentration for half-maximal inhibition (IC50) in data set [1] (setting [7]) and in data set [2] (setting [8]) were 6.21 ± 0.32 µM and 20.2 ± 1.7 µM, respectively.

By inhibition is commonly meant the relative decrease from the control value, in per cent. Consider `CCN(CC)CCCOc1ccc(C(=O)C=Cc2ccc(OCCCCCCCN(C)Cc3ccccc3)cc2)cc1` [compound 4, 3-(4-((7-(Benzyl(methyl)amino)heptyl)oxy)phenyl)-1-(4-(3-(diethylamino)propoxy)phenyl)-prop-2-en-1-one], for which, in data set [1], the “SI: selectivity index for AChE” value was 2.6. For the same compound, the half-inhibitory concentration (IC50) came to 0.92 ± 0.07 µM in data set [1] (setting [7]) and 2.38 ± 0.05 µM in data set [2] (setting [8]). In addition, the “concentrations that did not affect neuronal viability” value in the data set with SH-SY5Y cells [3] is on record as “up to 2.5 µM”. The inhibition at 1.25 µM in the data set on SH-SY5Y cells [4] worked out at 27%. Also, the “effect on GSH levels” value in the data set with SH-SY5Y cells [5] was “significantly increased GSH levels”. In the data set with SH-SY5Y cells [6], the “neuroprotective activity toward OAβ1–42 induced toxicity (neuronal viability)” value is recorded as “partially counteracted the neurotoxic effects”.

For the compound `CCN(CC)CCOc1cccc(C(=O)C=Cc2ccc(OCCCCCCCN(C)Cc3ccccc3)cc2)c1` [compound 13, 3-(4-((7-(Benzyl(methyl)amino)heptyl)oxy)phenyl)-1-(3-(2-(diethylamino)ethoxy)phenyl)-prop-2-en-1-one], in data set [1], the “SI: selectivity index for AChE” value is 0.62. Besides, the results for the half-maximal inhibitory concentration (IC50) in data set [1] (setting [7]) and in data set [2] (setting [8]) were 1.47 ± 0.11 µM and 0.92 ± 0.04 µM, respectively.

Take `CCN(CC)Cc1ccc(C(=O)C=Cc2ccc(OCCCCCCCN(C)Cc3ccccc3)cc2)cc1` [compound 1, 3-(4-((7-(Benzyl(methyl)amino)heptyl)oxy)phenyl)-1-(4-((diethylamino)methyl)phenyl)prop-2-en-1-one]: the “SI: selectivity index for AChE” value in data set [1] is 3.14. The half-maximal inhibitory concentration (IC50) in data set [1] (setting [7]) amounted to 2.81 ± 0.29 µM; in data set [2] (setting [8]) it was 8.83 ± 0.58 µM. Also, the “fold increase in hAChE inhibitory activity” value in data set [1] (methylendiethylamino group in place of the methoxy group (compounds 2, 12)) is listed as 35 fold.

With `CN(CCCCCCCOc1ccc(C=CC(=O)c2ccc(OCCN3CCC(n4c(=O)[nH]c5ccccc54)CC3)cc2)cc1)Cc1ccccc1` [compound 9, 1-(1-(2-(4-(3-(4-((7-(Benzyl(methyl)amino)heptyl)oxy)phenyl)acryloyl)phenoxy)ethyl)-piperidin-4-yl)-1,3-dihydro-2H-benzo[d]imidazol-2-one], in data set [1], the “SI: selectivity index for AChE” value was 0.29. For the same compound, the IC50 was 13.5 ± 2.3 µM in data set [1] (setting [7]) and 3.93 ± 0.2 µM in data set [2] (setting [8]).

For the compound `CCN(CC)CCCOc1ccc(C(=O)CCc2ccc(OCCCCCCCN(C)Cc3ccccc3)cc2)cc1` [compound 17, 3-(4-((7-(Benzyl(methyl)amino)heptyl)oxy)phenyl)-1-(4-(3-(diethylamino)propoxy)phenyl)-propan-1-one], the “SI: selectivity index for AChE” value in data set [1] is 3.04. In addition, the 50% inhibitory concentration (IC50) in data set [1] (setting [7]) was 1.66 ± 0.09 µM; in data set [2] (setting [8]), 5.04 ± 0.3 µM. For the same compound, the “concentrations that did not affect neuronal viability” value in the data set with SH-SY5Y cells [3] is given as “up to 2.5 µM”. Further, the inhibition at 1.25 µM in the data set with SH-SY5Y cells [4] is 23%. Besides, in the data set with SH-SY5Y cells [5], the “effect on GSH levels” value is reported as “significantly increased GSH levels”. Moreover, the “neuroprotective activity toward OAβ1–42 induced toxicity (neuronal viability)” value in the data set with SH-SY5Y cells [6] was “No neuroprotective effect”.

For the compound `CN(CCCCCCCOc1ccc(C=CC(=O)c2ccc(OCCN3CCC(O)(c4ccc(Cl)cc4)CC3)cc2)cc1)Cc1ccccc1` [compound 11, 3-(4-((7-(Benzyl(methyl)amino)heptyl)oxy)phenyl)-1-(4-(2-(4-(4-chlorophenyl)-4-hydroxypiperidin-1-yl)ethoxy)phenyl)prop-2-en-1-one], the “IC50 (µM) ± SEM hAChE” value in data set [1] (pH 8) was “inactive”. Further, the “IC50 (µM) ± SEM hBuChE” value in data set [2] (pH 8) is “inactive”.

Turning to `CCN(CC)CCCCOc1ccc(C(=O)C=Cc2ccc(OCCCCCCCN(C)Cc3ccccc3)cc2)cc1` [compound 5, 3-(4-((7-(Benzyl(methyl)amino)heptyl)oxy)phenyl)-1-(4-(4-(diethylamino)butoxy)phenyl)prop-2-en-1-one], in data set [1], the “SI: selectivity index for AChE” value is given as 3.5. Also, the figures for the IC50 in data set [1] (setting [7]) and in data set [2] (setting [8]) were 1.06 ± 0.08 µM and 3.7 ± 0.08 µM, respectively.

Take `CCN(CC)CCOc1ccc(C(=O)C=Cc2ccc(OCCCCCCCN(C)Cc3ccccc3)cc2)cc1` [compound 3, 3-(4-((7-(Benzyl(methyl)amino)heptyl)oxy)phenyl)-1-(4-(2-(diethylamino)ethoxy)phenyl)-prop-2-en-1-one]: the “SI: selectivity index for AChE” value in data set [1] is recorded as 28.4. Also, the IC50 is 0.7 ± 0.09 µM in data set [1] (setting [7]) and 19.9 ± 5.5 µM in data set [2] (setting [8]).

As to `CCN(CC)CCCCOc1ccc(C(=O)CCc2ccc(OCCCCCCCN(C)Cc3ccccc3)cc2)cc1` [compound 18, 3-(4-((7-(Benzyl(methyl)amino)heptyl)oxy)phenyl)-1-(4-(4-(diethylamino)butoxy)phenyl)-propan-1-one], the “SI: selectivity index for AChE” value in data set [1] was 5.04. The values for the half-maximal inhibitory concentration (IC50) in data set [1] (setting [7]) and in data set [2] (setting [8]) were 2.46 ± 0.11 µM and 12.4 ± 2.4 µM, respectively.

Consider `COc1cccc(C(=O)C=Cc2ccc(OCCCCCCCN(C)Cc3ccccc3)cc2)c1` [compound 12, 3-(4-((7-(Benzyl(methyl)amino)heptyl)oxy)phenyl)-1-(3-methoxyphenyl)prop-2-en-1-one], for which the “SI: selectivity index for AChE” value in data set [1] is recorded as 0.08. Besides, the IC50 was found to be 105 ± 17 µM in data set [1] (setting [7]) and 8.58 ± 0.35 µM in data set [2] (setting [8]).

For `CCN(CC)CCCOc1cccc(C(=O)C=Cc2ccc(OCCCCCCCN(C)Cc3ccccc3)cc2)c1` [compound 14, 3-(4-((7-(Benzyl(methyl)amino)heptyl)oxy)phenyl)-1-(3-(3-(diethylamino)propoxy)phenyl)-prop-2-en-1-one], the “SI: selectivity index for AChE” value in data set [1] is on record as 0.31. In addition, the 50% inhibitory concentration (IC50) was 5.78 ± 0.67 µM in data set [1] (setting [7]) and 1.82 ± 0.05 µM in data set [2] (setting [8]).

As to `COc1ccc(C(=O)C=Cc2ccc(OCCCCCCCN(C)Cc3ccccc3)cc2)cc1` [compound 2, 3-(4-((7-(Benzyl(methyl)amino)heptyl)oxy)phenyl)-1-(4-methoxyphenyl)prop-2-en-1-one], the “SI: selectivity index for AChE” value in data set [1] is 0.03. Also, the IC50 in data set [1] (setting [7]) worked out at 98.5 ± 8.8 µM; in data set [2] (setting [8]), 2.85 ± 0.7 µM. For the same compound, the “concentrations that did not affect neuronal viability” value in the data set on SH-SY5Y cells [3] is listed as “up to 2.5 µM”. In the data set on SH-SY5Y cells [4], the inhibition at 1.25 µM was found to be 16%. The “effect on GSH levels” value in the data set on SH-SY5Y cells [5] is given as “decreased GSH basal levels”. For the same compound, in the data set with SH-SY5Y cells [6], the “neuroprotective activity toward OAβ1–42 induced toxicity (neuronal viability)” value is listed as “reinforced the neurotoxic effects”.

Consider `CN(CCCCCCCOc1ccc(C=CC(=O)c2ccc(OCCN3CCC(c4ccccc4)CC3)cc2)cc1)Cc1ccccc1` [compound 10, 3-(4-((7-(Benzyl(methyl)amino)heptyl)oxy)phenyl)-1-(4-(2-(4-phenylpiperidin-1-yl)ethoxy)-phenyl)prop-2-en-1-one], for which the “IC50 (µM) ± SEM hAChE” value in data set [1] (setting [7]) was “inactive”. For the same compound, in data set [2] (setting [8]), the “IC50 (µM) ± SEM hBuChE” value is “inactive”.
